Structures can show the parent of a compound that is named as a salt.
Target: T1, Apelin receptor (Homo sapiens, UniProt P35414)
T1 sequence (P35414 whole entry): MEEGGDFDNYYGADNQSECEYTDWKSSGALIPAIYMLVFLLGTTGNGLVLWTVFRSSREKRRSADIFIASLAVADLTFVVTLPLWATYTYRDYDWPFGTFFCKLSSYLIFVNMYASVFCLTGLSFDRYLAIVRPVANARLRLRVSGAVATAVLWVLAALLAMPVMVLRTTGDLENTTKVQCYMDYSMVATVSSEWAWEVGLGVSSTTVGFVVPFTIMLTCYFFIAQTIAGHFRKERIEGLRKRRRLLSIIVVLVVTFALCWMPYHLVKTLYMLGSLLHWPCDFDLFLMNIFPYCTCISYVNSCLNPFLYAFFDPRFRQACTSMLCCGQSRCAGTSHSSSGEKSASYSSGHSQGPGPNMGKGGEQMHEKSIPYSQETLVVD
Experiment: apelin receptor activators, concentration-response – cell-based, luminescence, uHTS hits, dose response (AID 488748)

SMILES: CC1CCN(S(=O)(=O)c2ccc3nc(N4CCN(c5ccccc5)CC4)ccc3c2)CC1 [SMR000630335]
- EC50: > 100 µM

SMILES: COc1cc(NC(=S)NC(=O)CCc2ccccc2)cc(OC)c1 [SMR000668635]
- EC50: > 100 µM

SMILES: CN(C)CCCN(C(=O)c1ccc(S(=O)(=O)N2CCc3ccccc3C2)cc1)c1nc2ccc(F)cc2s1 [SMR000807789]
- EC50: > 100 µM

SMILES: Cc1cccc2sc(N(CCCN(C)C)C(=O)c3ccc(S(=O)(=O)N4CCc5ccccc5C4)cc3)nc12 [SMR000807812]
- EC50: > 100 µM

SMILES: CN(C)CCCN(C(=O)c1ccc(S(=O)(=O)N2CCc3ccccc3C2)cc1)c1nc2c(F)cccc2s1 [SMR000807825]
- EC50: > 100 µM

SMILES: CN(C)CCCN(C(=O)c1cc2cc([N+](=O)[O-])ccc2s1)c1nc2cc3c(cc2s1)OCCO3 [SMR000807865]
- EC50: > 100 µM

SMILES: COC(=O)CCCC1=CC2=CC(=O)C(C)(OC(=O)c3cccs3)C(=O)C2=CN1C1CCCCC1 (stereo unspecified) [[2-cyclohexyl-3-(4-methoxy-4-oxobutyl)-7-methyl-6,8-dioxoisoquinolin-7-yl] thiophene-2-carboxylate]
- EC50: > 100 µM

SMILES: CCCCC1=CC2=CC(=O)C(C)(OC(=O)C3CCCC3)C(=O)C2=CO1 (stereo unspecified) [cyclopentanecarboxylic acid (3-butyl-7-methyl-6,8-dioxo-2-benzopyran-7-yl) ester]
- EC50: > 100 µM

SMILES: CCOC(=O)N1CCN(S(=O)(=O)c2ccc(C(=O)N(CCCN(C)C)c3nc4ccc(Cl)cc4s3)cc2)CC1 [ethyl 4-[4-[(6-chloranyl-1,3-benzothiazol-2-yl)-[3-(dimethylamino)propyl]carbamoyl]phenyl]sulfonylpiperazine-1-carboxylate;hydrochloride]
- EC50: > 100 µM

SMILES: CCOC(=O)C1C(Cn2cnc3ccccc32)=NC(=O)NC1c1cc(C)ccc1C (stereo unspecified) [ethyl 6-(benzimidazol-1-ylmethyl)-4-(2,5-dimethylphenyl)-2-oxidanylidene-3,4-dihydro-1H-pyrimidine-5-carboxylate]
- EC50: > 100 µM

SMILES: COC(=O)C1C(Cn2cnc3ccccc32)=NC(=O)NC1c1cc(C)ccc1C (stereo unspecified) [methyl 6-(benzimidazol-1-ylmethyl)-4-(2,5-dimethylphenyl)-2-oxo-3,4-dihydro-1H-pyrimidine-5-carboxylate]
- EC50: > 100 µM

Source: BindingDB's records for doi:10.7270/Q2NV9GP9 (Burnham Center For Chemical Genomics, 2010)
